{"source": "patent US11786555B2", "about": "“RAR selective agonists in combination with immune modulators for cancer immunotherapy” (IO THERAPEUTICS, INC., priority 2017, dated 2023)", "key": {"[1]": {"system": "H929 cells and primary CD138+ MM cells", "experiment": "clonogenic or cellular recovery of MM cells after BTZ treatment", "type": "cell-based, human", "conditions": "stroma co-culture, 1 μM for 5 days, then BTZ 2.5 nM", "protocol": "FIG. 4A-B depicts the clonogenic recovery (CFU) of H929 cells (FIG. 4A) or cellular recovery of primary CD138+ MM cells from 3 different patient samples (FIG. 4B). MM cells were treated with bortezomib (BTZ; 2.5 nM) for 48 hours after being incubated for 5 days either in the absence of stroma (Liquid), with or without the pan-RAR inhibitor AGN (1 μM), or in the presence of BM mesenchymal cells (Stroma), with or without the CYP26 inhibitor R115 (1 μM) or the CYP26-resistant retinoid IRX (1 μM). Clonogenic or cellular recovery was normalized to each condition in the absence of BTZ.\nCoculture experiments. 24-well plates were coated with 0.1% gelatin in PBS for 30 min at 37° C. The gelatin solution was removed, and the stromal cells were cultured overnight at a density of 5×10^4 cells/well to obtain a confluent monolayer. At that time, MM cell lines or primary MM cells (1×10^5 in 2 ml) were added to the stroma cultures. The stroma cocultures were incubated at 37° C. in RPMI containing 10% FCS, L-glutamine, and P/S, with or without AGN194310 (1 μM for 5 days), R115866 (1 μM for 5 days), IRX5183 (1 μM for 5 days), or BTZ (2.5 nM for 48 hr).\nClonogenic assays. After treatment, MM cells were collected, washed with PBS, and plated at a density of 5,000 cells/ml in 1 ml of 1.32% methylcellulose supplemented with 30% FBS, 10% BSA, L-glutamine, P/S, and 0.1 mM β-ME. Cells were plated in triplicate in 35-mm culture dishes, incubated at 37° C., and scored for the presence of colonies 14 days later.\nA RA-low microenvironment induces BTZ resistance. To determine whether decreased retinoid signaling contributes to BTZ resistance within the BM niche, MM cell lines and MM CD138+ primary cells were incubated with BM stroma for 5 days, followed by BTZ treatment."}, "[2]": {"system": "naive CD4+ CD25− FoxP3− cells", "experiment": "in vitro Th17 cell differentiation", "type": "cell-based, mouse", "conditions": "0.1 nM", "protocol": "To determine whether a RARα agonist could affect T cell differentiation, T cells were incubated with a RARα agonist to determine its effect on Foxp3 expression. Naive CD4^+ CD25^− FoxP3^− cells were purified from a Foxp3-GFP mouse using flow cytometry by sorting and isolating based upon a GFP^− phenotype. These cells were activated polyclonally with αCD3 in vitro in the presence of IL-2 and TGF-β. These cells were then cultured in media with various concentrations of compound IRX5183 (a RARα agonist) and the expression of FoxP3-GFP was analyzed by flow cytometry. The RARα agonist compound IRX5183 enhanced differentiation of immunosuppressive Treg cells and inhibited differentiation of inflammatory TH17 cells from naïve T cells in vitro (Table 2)."}, "[3]": {"system": "H929 Luc+ cells with WT or Smo-KO stroma", "experiment": "subcutaneous xenograft model of MM-niche interactions, bioluminescence", "type": "in vivo, mouse", "protocol": "FIG. 9 depicts bioluminescent images of mice showing tumor burden during 4 weeks of treatment with IRX (10 mg/kg), BTZ (0.5 mg/kg), or the combination. Anterior tumors consisted of a combination of MM.1S luciferase^+ cells and Smo^FI/FI BM stroma cells transduced with a control vector (WT BM stroma). Posterior tumors consisted of a combination of MM.1S luciferase^+ cells and Smo^FI/FI BM stroma cells transduced with Cre-recombinase (Smo KO BM stroma).\nFIG. 10 depicts the fold change in bioluminescence (photons/second) of tumors during 4 weeks of treatment. The change in bioluminescence for each tumor […].\nMouse xenografts. 1×10^6 H929 Luc+ cells and 1×10^6 mouse BM stromal cells were resuspended in 100 μl […]®, diluted with RPMI (1:1), and injected subcutaneously into 16-week-old male NSG mice. After 4 days, treatment with BTZ (0.5 mg/kg i.p. twice weekly) and IRX (10 mg/kg i.p. daily) was initiated. Tumor burden was assessed by bioluminescence using the In Vivo Imaging System (PerkinElmer). For imaging, mice were exposed to 120 mg/kg D-luciferin via intraperitoneal injection […] before imaging and were anesthetized using isoflurane. Images were analyzed with Living Image Software, version 2.5 (PerkinElmer), and data were quantified as photons/second.\nTo study to what extent an RA-low environment created by the BM stroma and enhanced by MM cells via paracrine Hedgehog signaling contributes to BTZ resistance, a xenograft model of MM-niche interactions was developed. Each mouse carried 2 subcutaneous tumors consisting of H929 Luc+ cells and either WT (anterior tumors) or Smo-KO stroma (posterior tumors). Mice were treated with IRX (10 mg/kg i.p. daily), BTZ (0.5 mg/kg i.p. twice weekly), or a combination of both. The growth of tumors bearing WT or Smo-KO stroma was not different in untreated or IRX-treated groups (FIGS. 9 and 10). […] While some tumors in the treatment group receiving combined IRX and BTZ appeared to have regressed completely, even after anatomical study, this was not the case for all the mice in this group."}, "[4]": {"system": "CD4+ T cells", "experiment": "in vivo T cell differentiation in mice (blood and spleen)", "parameters": "species or system mouse", "conditions": "100 μg every other day for 10 days", "protocol": "To expand on the finding above, the in vivo effects of a RARα agonist on T cell differentiation was evaluated in a mouse model. Mice were treated with 100 μg of compound IRX5183 or an equivalent volume of DMSO (vehicle control) every other day for 10 days. Lymphocytes from the blood and spleen were then isolated and FoxP3 expression in CD4^+ T cells was assessed."}, "[5]": {"system": "H929 Luc+ cells", "experiment": "systemic MM xenograft, bioluminescence", "type": "in vivo, mouse", "conditions": "4 weeks", "protocol": "FIG. 6 depicts bioluminescent images of systemic MM xenografts. Following engraftment of H929 Luc+ cells, mice were treated with IRX (n=4), BTZ (n=5), or a combination of both (n=5) for 4 weeks. Data represent the mean±SEM of the fold change in bioluminescence (photons/second) from day 0.\nFor the systemic MM model, 2×10^6 Luc+/GFP+ H929 cells were injected via the tail vein into 16-week-old male NSG mice. After engraftment, as determined by an exponential increase in bioluminescence, mice were treated with BTZ (0.5 mg/kg i.p.) twice weekly and with IRX (10 mg/kg) once daily. Tumor burden was assessed by bioluminescence, as above.\nTo test whether retinoids can enhance BTZ activity in MM, a systemic MM xenograft was developed by injecting 2×10^6 H929 luciferase+ (Luc+) cells via the tail vein of non-obese, diabetic, severe combined immunodeficiency IL-2 receptor y-KO (NSG) mice. The animals were randomized to receive IRX, BTZ, or a combination of both, and disease burden was followed weekly by bioluminescence imaging (FIG. 6)."}}}
{"smiles": "CC1(C)CCC(C)(C)c2c1cc(C(=O)Nc1cc(F)c(C(=O)O)c(F)c1)c(O)c2Cl", "note": "[IRX5183]", "values": [{"measurement": "effect on stroma-induced BTZ resistance", "setting": "[1]", "result": "overcome"}, {"measurement": "Th17 cell Percent Differentiation", "setting": "[2]", "result": 32, "unit": "%"}, {"measurement": "growth of tumors bearing WT versus Smo-KO stroma", "setting": "[3]; IRX 10 mg/kg i.p. daily", "result": "not different"}, {"measurement": "tumor response (bioluminescence)", "setting": "[3]; combination of IRX and BTZ, WT or Smo-KO stroma", "result": "significant and equivalent response, regardless of the phenotype of the stromal compartment"}, {"measurement": "Foxp3+ Expression", "setting": "[4]; Blood", "result": 4.3, "unit": "%"}, {"measurement": "Foxp3+ Expression", "setting": "[4]; Spleen", "result": 25, "unit": "%"}, {"measurement": "disease burden (bioluminescence)", "setting": "[5]; combination of IRX 10 mg/kg daily and BTZ 0.5 mg/kg twice weekly", "result": "significant (P<0.01) decrease in disease burden"}, {"measurement": "tumor burden (bioluminescence)", "setting": "[5]; monotherapy, BTZ 0.5 mg/kg i.p. twice weekly, IRX 10 mg/kg once daily", "result": "decrease in tumor burden compared with untreated mice"}]}
